From publication PMC12631437, “Evaluation of the Activity of 4‑Quinolones against Multi-Life Stages of Plasmodium spp” (ACS Omega, 2025)
Several values for one entry are separate records, joined by “and”; a condition that tells them apart may be missing. Equal values may be shown once. Read-outs that look alike come from different tables or passages of the source.

Assays:
[1] = system: Plasmodium over mammalian cells; conditions: specificity for Plasmodium over mammalian cells; previous studies; cited from earlier work
[2] = system: P. berghei sexual phases in An. stephensi; test: In vivo transmission-blocking assay, P. berghei infected CD1 mice, An. stephensi; design: species or system Plasmodium berghei; conditions: 2 doses of 50 mg/kg 12 h apart
Procedure: For this assay, a colony of An. stephensi was used. The lab-reared An. stephensi was kept under controlled conditions, with a temperature of 26 °C ± 1 °C, a 12/12 h light/dark cycle, a relative humidity of 70% ± 10%, and fed a 30% sugar solution as needed.
Female CD1 mice (4 to 6 weeks old) were infected by intraperitoneal inoculation (i.p.) containing 10 million erythrocytes infected with P. berghei expressing the GFP fluorescent protein. After 4 days, when parasites in the sexual stages were detected via Giemsa-stained blood smears, mice with similar gametocytemia and parasitemia were randomly divided into three groups of two animals each. The groups of two mices were treated orally with compound 1 at two doses of 50 mg/kg, spaced 12 h apart. […] Following the second dose, mice were anesthetized and placed in individual cages containing approximately 50 female A. stephensi mosquitoes, which had been starved for 24 h before the assay. Blood feeding lasted for 30 min, after which unfed mosquitoes were removed. Engorged females were maintained in an insectary at 21 ± 1 °C and 60% relative humidity, receiving a 30% glucose solution.
A group of 10 mosquitoes was set aside to assess sporozoite development in salivary glands, following a protocol similar to the one described previously, with dissections performed 21 days postblood meal. Additionally, 10 μL of mouse blood was collected immediately after treatment with the compounds and incubated at room temperature for 15 min. Exflagellation was observed under optical microscopy to evaluate the effect of 4-quinolone-derived molecules on microgametocyte activity.

[3] = system: P. falciparum DHODH strain; test: SYBR Green growth assay, asexual blood stages, DHODH resistant mutant; assay type: cell-based, Plasmodium falciparum
Procedure: Healthy blood samples for parasite culture were obtained from voluntary donors (approved under protocol #28176720.9.0000.0011), processed to remove white blood cells, and stored at 2 °C–8 °C for up to 15 days. Parasite strains SB1-A6, 7G8, V1/S, and HB3 were acquired from BEI-MR4, while the ATQ R1 strain, carrying a V259L gene mutation, was generated in-house. Infected erythrocytes were cultured in RPMI 1640 medium supplemented with Hepes, sodium bicarbonate, glucose, Albumax, and gentamicin, […], and incubated in a 5% CO2, 5% O2, and 90% N2 gas mixture at 37 °C with daily medium changes. Parasitemia was monitored using Giemsa-stained blood smears.
Bioassays were conducted with synchronized ring-stage parasites using sorbitol synchronization. Antimalarial compounds were evaluated in 96-well plates, and parasite growth was assessed using a SYBR Green-based fluorescence assay The assays were conducted when the parasite quantity reached at least 70% of the ring stage. Compounds were initially added at specific concentrations in the first wells, followed by serial dilution (1:2) ranging from 20 μM to 0.009 μM. Subsequently, a solution containing parasites in RPMI medium at a hematocrit of 2% was added to each well, and the parasites were then incubated for 72 h.
To assess parasite growth, the culture medium was replaced with a lysis solution (Trisbase: 49.31%, EDTA: 30.00%, Saponin: 0.16%, Triton: 0.02%) containing the fluorescent dye SYBR Green (Sigma). After a 30 min incubation, fluorescence readings were taken to determine the 50% inhibitory concentration (IC50) of parasite growth. The IC50 values were determined using concentration–response curves generated in GraphPad 8 software. Additionally, the resistance index was calculated by comparing IC50 values obtained for the sensitive 3D7 strain with those of the resistant strains.

[4] = Mitochondrial toxicity, HepG2 cells cultured in glucose or galactose (resazurin); assay type: cell-based; conditions: human, 3.125–50 μM, read-out: cell viability
Procedure: To evaluate mitochondrial toxicity, HepG2 cells were cultured in RPMI-1640 medium under two metabolic conditions: one group was maintained in standard RPMI supplemented with 2 g/L glucose (glucose condition), while the second group was gradually adapted to rely on galactose as the primary energy source. For this adaptation, glucose levels were reduced by 20% every 2 days until reaching a final concentration of 20% of the original glucose amount. On the day of the assay, the […] cells were cultured in glucose-free RPMI medium supplemented with 10 mM galactose. When cells reached 80% confluence, they were detached using 2 mL of trypsin-EDTA solution (0.2 g of EDTA) for 5 min at 37 °C, then resuspended in fresh medium and centrifuged at 100 × g for 1 min. After centrifugation, cells were counted using a Neubauer chamber and seeded at […] per well in 96-well plates containing 180 μL of culture medium. Plates were incubated at 37 °C with 5% CO2 for 12–16 h to allow for cell adhesion. […] After treatment, 40 μL of a 0.15 mg/mL resazurin solution (RSZ) was added to each well and incubated for an additional 5 h. RSZ is a nontoxic, cell-permeable blue dye that is reduced by metabolically active cells to highly fluorescent pink resorufin. Fluorescence was measured using a fluorimeter with excitation/emission at 560/590 nm. Cell viability was calculated relative to untreated controls (set at 100%), determined using GraphPad Prism 8.

Structure (SMILES): CCCCCCCCCCCc1cc(=O)c2ccccc2[nH]1 [compound 1, 2-Undecilquinolin-4(1H)-one]
- selectivity index (SI) [1]: > 120
- Prevalence of infection in An. stephensi mosquitoes (Positive) [2]: 70%
- reduction in the infection rate (salivary glands) ([2]; 21 days postinfection): 91%
- reduction in the number of P. berghei sporozoites (in vivo) ([2]; 21 days postinfection, 50 mg/kg): 91,30% and 91%
- reduction in male exflagellation centers (in vivo) ([2]; blood at mosquito feeding, 50 mg/kg): 85,17% and 85%
- IC50 ([3]; Plasmodium falciparum, 72 h): 60 ± 10 nM
- RI (resistance index) ([3]; ratio of IC50 DHODH to 3D7): 0.3
- viability at 24 h ([4]; HepG2 cells adapted to galactose, HepG2 in galactose): < 0.5%
- viability at 24 h ([4]; HepG2 cells cultured in glucose, HepG2 in glucose): > 50%
